One data set has as its system DENV-2 NGC-Tongalike. As to the kind of experiment: Tetravalent RT-qPCR assay Protocol B, serotype 2. Particulars: Dengue virus, DENV2, Vero, 96 h. In kind it is cell-based. How it is done: Vero cells (4×10^4) were seeded in 96-well plates. After one day, cell culture medium was replaced with 100 μL assay medium containing a 2×, 3× or 5× serial dilution of the compound (concentration range: 50 μg/mL-0.00038 μg/mL, 50 μg/mL-0.0076 μg/mL, and 50 μg/mL-0.00013 μg/mL, respectively) and 100 μL of dengue virus dilution, where a Ct of ˜20 is achieved in RTqPCR. Following a 2 hour incubation period, the cell monolayer was washed 3 times with assay medium to remove residual, non-adsorbed virus and cultures were further incubated for either 4 days (DENV-2 NGC-Tongalike) or 7 days (DENV-1 Djibouti strain D1/H/IMTSSA/98/606, DENV-3 strain H87 prototype, DENV-4 strain H241) in the presence of the inhibitor. Supernatant was harvested and viral RNA load was determined by real-time quantitative RT-PCR. The 50% effective concentration (EC50), which is defined as the compound concentration that is required to inhibit viral RNA replication by 50%, was determined using logarithmic interpolation (Tables 7 and 8).
RNA was isolated from 100 μL supernatant with the NucleoSpin 96 Virus kit (Filter Service, Düren, Germany) as described by the manufacturer. The sequences of the TaqMan primers (DENV-For, DENV-Rev; Table 5) and TaqMan probes (DENV-Probe Table 5) were selected from non-structural gene 3 (NS3) or NSS, of the respective flaviviruses using Primer Express software (version 2.0; Applied Biosystems, Lennik, Belgium). The TaqMan probe was fluorescently labelled with 6-carboxyfluorescein (FAM) at the 5′ end as the reporter dye, and with minor groove binder (MGB) at the 3′ end as the quencher (Table 5). One-step, quantitative RT-PCR was performed in a total volume of 25 μL, containing 13.9375 μL H2O, 6.25 μL master mix (Eurogentec, Seraing, Belgium), 0.375 μL forward primer, 0.375 μL reverse primer, 1 μL probe, 0.0625 μL reverse transcriptase (Eurogentec) and 3 μL sample. RT-PCR was performed using the ABI 7500 Fast Real-Time PCR System (Applied Biosystems, Branchburg, N.J., USA) using the following conditions: 30 min at 48° C. and 10 min at 95° C., followed by 40 cycles of 15 s at 95° C. and 1 min at 60° C. The data was analyzed using the ABI PRISM 7500 SDS software (version 1.3.1; Applied Biosystems). For absolute quantification, standard curves were generated using 10-fold dilutions of template preparations of known concentrations.
On the technique in general: Real-time PCR tracks product formation cycle by cycle.

A further data set is described as follows: in vitro. In kind it is cell-based. Particulars: African green monkey, CC50. How it is done:
In parallel, the toxicity of the compounds was assessed on the same plates. Once the read-out for the eGFP signal was done, 10 μL of resazurin, a cell viability stain, was added to all wells of the 384-well plates. The resazurin assay is based on the reduction of the blue resazurin by NADH, produced by the cells, into the highly fluorescent product, resorufin. The formation of pink fluorescent resorufin is directly related to the number of viable cells in the well. The plates were incubated for an additional 5 hours in a fully humidified incubator (37° C., 5% CO2). Next, the plates were measured on an Infinite reader (Tecan) using an excitation wavelength of 530 nm. The half maximal cytotoxic concentration (CC50) was also determined, defined as the concentration required to reduce the resazurin conversion by 50% compared to that of the cell control wells (Table 1). Finally, the selectivity index (SI) is determined for the compounds, which is calculated as followed: SI=CC50/EC50.

The subject of data set [1] is DENV-2 16681 strain labeled with eGFP. The data set can be described thus: DENV-2 antiviral assay (eGFP fluorescence, Vero cells). The data set is classed as cell-based, Dengue virus. Particulars: DENV-2 16681 eGFP, MOI 0.5, 3 days. How it is done: The antiviral activity of all the compounds of the invention was tested against DENV-2 16681 strain which was labeled with enhanced green fluorescent protein (eGPF). The culture medium consists of minimal essential medium supplemented with 2% of heat-inactivated fetal calf serum, 0.04% gentamycin (50 mg/mL) and 2 mM of L-glutamine. Vero cells, obtained from ECACC, were suspended in culture medium and 25 μL was added to 384-well plates (2500 cells/well), which already contain the antiviral compounds. Typically, these plates contain a 4-fold serial dilution of 9 dilution steps of the test compound at 200 times the final concentration in 100% DMSO (200 nL). In addition, each compound concentration is tested in quadruplicate (final concentration range: 25 μM-0.00038 μM). Finally, each plate contains wells which are assigned as virus controls (containing cells and virus in the absence of compound), cell controls (containing cells in the absence of virus and compound) and medium controls (containing medium in the absence of cells, virus and compounds). To the wells assigned as medium control, 25 μL of culture medium was added instead of Vero cells. Once the cells were added to the plates, the plates were incubated for 30 minutes at room temperature to allow the cells to distribute evenly within the wells. Next, the plates were incubated in a fully humidified incubator (37° C., 5% CO2) until the next day. Then, DENV-2 strain 16681, labeled with eGFP, was added at a multiplicity of infection (MOI) of 0.5. Therefore, 15 μL of virus suspension was added to all the wells containing test compound and to the wells assigned as virus control. In parallel, 15 μL of culture medium was added to the medium and cell controls. Next, the plates were incubated for 3 days in a fully humidified incubator (37° C., 5% CO2). At the day of the read out, the eGFP fluorescence was measured using an automated fluorescence microscope at 488 nm (blue laser). Using an in-house LIMS system, inhibition dose response curves for each compound were calculated and the half maximal effective concentration (EC50) was determined. Therefore, the percent inhibition (I) for every test concentration is calculated using the following formula: I=100*(ST−SCC)/(SVC−SCC); ST, SCC and SVC are the amount of eGFP signal in the test compound, cell control and virus control wells, respectively. The EC50 represents the concentration of a compound at which the virus replication is inhibited with 50%, as measured by a 50% reduction of the eGFP fluorescent intensity compared to the virus control. The EC50 is calculated using linear interpolation (Table 1).

For eleven compounds, EC50 and CC50 results are on record in patent US9944598B2, “Mono- or di-substituted indole derivatives as dengue viral replication inhibitors” (priority 2014, dated 2018).

A word on the EC50: it is the concentration at which the effect is half-maximal. Low readings indicate higher potency in that assay, high ones lower potency in that assay. Usually CC50 stands for the concentration giving 50% cytotoxicity. A low value points to greater toxicity to the cells.

As to `COc1cc(NC(C(=O)c2c[nH]c3cc(F)ccc23)c2ccc(Cl)cc2OC)cc(OCCO)c1` (single isomer, unassigned) [Compound 1A, 2-(4-chloro-2-methoxyphenyl)-1-(6-fluoro-1H-indol-3-yl)-2-((3-(2-hydroxyethoxy)-5-methoxyphenyl)amino)ethanone], the figures for the EC50 (in the data set on DENV-2 NGC-Tongalike; in data set [1]) were 0.38 nM and 0.81 nM, respectively. Moreover, the CC50 in the data set “in vitro” turned out to be 4300 nM.
Regarding `COc1cc(NC(C(=O)c2c[nH]c3c(C)c(F)ccc23)c2ccc(Cl)cc2OC)cc(OCCO)c1` (single isomer, unassigned) [Compound 2A, 2-(4-chloro-2-methoxyphenyl)-1-(6-fluoro-7-methyl-1H-indol-3-yl)-2-((3-(2-hydroxyethoxy)-5-methoxyphenyl)amino)ethanone], the EC50 is 0.4 nM with DENV-2 NGC-Tongalike and 0.81 nM in data set [1]. The same compound displayed a half-maximal cytotoxic concentration (CC50) in the data set “in vitro” of 4200 nM.
Consider `COc1cc(NC(C(=O)c2c[nH]c3c(C)c(Cl)ccc23)c2ccc(Cl)cc2OC)cc(OCCO)c1` (single isomer, unassigned) [Compound 3A, 2-(4-chloro-2-methoxyphenyl)-1-(6-chloro-7-methyl-1H-indol-3-yl)-2-((3-(2-hydroxyethoxy)-5-methoxyphenyl)amino)ethanone], for which the figures for the EC50 (in the data set with DENV-2 NGC-Tongalike; in data set [1]) were under 0.33 nM and 0.34 nM, respectively. In “in vitro”, this compound registered a CC50 of 4500 nM.
Turning to `COc1cc(NC(C(=O)c2c[nH]c3cc(Cl)ccc23)c2ccc(Cl)cc2OC)cc(OCCO)c1` (single isomer, unassigned) [Compound 4A, 1-(6-chloro-1H-indol-3-yl)-2-(4-chloro-2-methoxyphenyl)-2-((3-(2-hydroxyethoxy)-5-methoxyphenyl)amino)ethanone], the results for the EC50 (with DENV-2 NGC-Tongalike; in data set [1]) were under 0.34 nM and 0.7 nM, respectively. In the data set “in vitro”, this compound came in with a CC50 of 4900 nM.
In the same order, the values of `COc1cc(NC(C(=O)c2c[nH]c3cc(OC)ccc23)c2ccc(Cl)cc2OC)cc(OCCO)c1` (single isomer, unassigned) [Compound 5A, 2-(4-chloro-2-methoxyphenyl)-2-((3-(2-hydroxyethoxy)-5-methoxyphenyl)amino)-1-(6-methoxy-1H-indol-3-yl)ethanone] are under 0.4 nM, 0.84 nM and 5900 nM.
For `COc1cc(NC(C(=O)c2c[nH]c3cc(OC)c(C)cc23)c2ccc(Cl)cc2OC)cc(OCCO)c1` (single isomer, unassigned) [Compound 6A, 2-(4-chloro-2-methoxyphenyl)-2-((3-(2-hydroxyethoxy)-5-methoxyphenyl)amino)-1-(6-methoxy-5-methyl-1H-indol-3-yl)ethanone] the same measures were 0.4 nM, 0.82 nM and 5100 nM.
For `COc1cc(NC(C(=O)c2c[nH]c3cc(OC)c(F)cc23)c2ccc(Cl)cc2OC)cc(OCCO)c1` (single isomer, unassigned) [Compound 7A, 2-(4-chloro-2-methoxyphenyl)-1-(5-fluoro-6-methoxy-1H-indol-3-yl)-2-((3-(2-hydroxyethoxy)-5-methoxyphenyl)amino)ethanone] the same measures were 0.27 nM, 1.1 nM and 6100 nM.
For `COc1cc(NC(C(=O)c2c[nH]c3c(C)cc(F)cc23)c2ccc(Cl)cc2OC)cc(OCCO)c1` (single isomer, unassigned) [Compound 8A, 2-(4-chloro-2-methoxyphenyl)-1-(5-fluoro-7-methyl-1H-indol-3-yl)-2-((3-(2-hydroxyethoxy)-5-methoxyphenyl)amino)ethanone], the EC50 in the data set with DENV-2 NGC-Tongalike came to 1.4 nM; in data set [1] it was 1.2 nM. In “in vitro”, this compound had a 50% cytotoxic concentration (CC50) of 4200 nM.
For the compound `COc1cc(NC(C(=O)c2c[nH]c3cc(F)c(F)cc23)c2ccc(Cl)cc2OC)cc(OCCO)c1` (single isomer, unassigned) [Compound 9A, 2-(4-chloro-2-methoxyphenyl)-1-(5,6-difluoro-1H-indol-3-yl)-2-((3-(2-hydroxyethoxy)-5-methoxyphenyl)amino)ethanone], the EC50 in the data set with DENV-2 NGC-Tongalike is under 0.31 nM. This compound also registered a 50% cytotoxic concentration (CC50) in the data set “in vitro” of 3900 nM.
Take `COc1cc(NC(C(=O)c2c[nH]c3c(F)cc(C)cc23)c2ccc(Cl)cc2OC)cc(OCCO)c1` (single isomer, unassigned) [Compound 10A, 2-(4-chloro-2-methoxyphenyl)-1-(7-fluoro-5-methyl-1H-indol-3-yl)-2-((3-(2-hydroxyethoxy)-5-methoxyphenyl)amino)ethanone]: the EC50 in the data set on DENV-2 NGC-Tongalike turned out to be 1.4 nM; in data set [1] it was 3.2 nM. For the same compound, in the data set “in vitro”, it took 4500 nM to reach half-maximal cytotoxicity (CC50).
`COc1cc(NC(C(=O)c2c[nH]c3c(F)c(F)ccc23)c2ccc(Cl)cc2OC)cc(OCCO)c1` (single isomer, unassigned) [Compound 11B, 2-(4-chloro-2-methoxyphenyl)-1-(6,7-difluoro-1H-indol-3-yl)-2-((3-(2-hydroxyethoxy)-5-methoxyphenyl)amino)ethanone]: the EC50 in the data set on DENV-2 NGC-Tongalike turned out to be 0.27 nM; in data set [1] it was 1.2 nM.
